The record followed here is patent publication US5230998A, “Method for the prescreening of drugs targeted to the V3 hypervariable loop of the HIV-1 envelope glycoprotein gp 120” (priority 1991, dated 1993).

The target of the test is T1, HIV-1 gp120 V3 hypervariable loop (Human immunodeficiency virus type 1 group M subtype B, UniProt P03375).
T1 construct: Polystyrene plates coated with recombinant gp120 and gp160, respectively; purchased American Bio-Technologies, Inc., Cambridge, Mass; host or cells: baculovirus expression system
Description: biochemical. Format: binding. The method, boiled down: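 Inhibition RIA/ELISA: gp120/gp160-coated or synthetic peptide-coated wells (gp120/gp41 of HIV-1 BH10 and V3 loops of 21 isolates) incubated overnight at 25 °C with rabbit anti-peptide antisera (1:150, or 1:1,000 for V3) ± compound (ATA 50 μg/ml). Bound IgG detected with 125I-anti-rabbit IgG; percent inhibition versus no-compound control.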
Throughout, for Inhibitory activity: key: Chemicals with inhibitory activity are indicated by +.

In the case of `O=C(O)C1=CC(=C(c2ccc(O)c(C(=O)O)c2)c2ccc(O)c(C(=O)O)c2)C=CC1=O` [substance #122, aurintricarboxylic acid], the “extent of inhibition of reaction between gp120 and anti-V3 antibodies versus antibody dilution” value (ATA 50 μg/ml, FIG. 3) is listed as “correlated with the dilution of antibodies”. Besides, the “inhibition of attachment to gp120 of antibodies against the (303-338) segment” value (ATA 50 μg/ml, antisera 1:150, significant inhibition (FIG. 1A)) is ≥ 22%.

Turning to `C=Cc1c(C)c2cc3nc(c(CC(=O)O)c4[nH]c(cc5nc(cc1[nH]2)C(C)=C5CC)c(C)c4C(=O)O)[C@@H](CCC(=O)O)[C@@H]3C` [substance #149, chlorine e6], the Inhibitory activity result (Table 1, reaction between HIV-1 gp120 and anti-V3 loop antibodies) is given as “+”. Also, the inhibition at 50 µg/mL (read-out: percentage of inhibition) amounted to 76.3%.
